These results are taken from patent EP4700022A1, “CYP11A1 INHIBITORS AND USE THEREOF” (Xizang Haisco Pharmaceutical Co., Ltd., priority 2023, dated 2024).

The test system of series [1] is testosterone level in NCI-H295R cells. Kind of series: cells. The conditions noted are these: Homo sapiens, 72 h; for inhibition at 0.1 µM: read-out: Testosterone level in H295R (Elisa) inh.% 100 nM; for inhibition at 1 µM: read-out: Testosterone level in H295R (Elisa) inh.% 1000 nM; for IC50: read-out: IC50/nM. It counts as cell-based. As to the method: 1. The purpose of the experimental study was intended to detect the testosterone level in the NCI-H295R cells by adopting the Enzyme linked immunosorbent assay (ELISA), so as to evaluate the inhibitory effects of the compounds on the testosterone level in the NCI-H295R cells. The H295R cells were purchased from ATCC, the cell complete medium contained DMEM: F12+ 10% FBS +0.00625 mg/ml insulin +0.00625 mg/ml transferrin+6.25 ng/ml selenium +1.25 mg/ml BSA+0.00535 mg/ml linoleic acid, and the cells were cultured in a 37°C, 5% CO2 incubator. The cells in the exponential growth phase were collected, and cultured in a cytokine-free medium (phenol red 1640-free +1% PS+10% css FBS+1.25 mg/ml BSA +0.00625 mg/ml insulin + 0.00625 mg/ml transferrin+6.25 ng/ml selenium+0.00535 mg/ml linoleic acid) for 3 days. The cells in the exponential growth phase were collected on the third day. The cell suspension was adjusted with a cytokine-free medium to a corresponding concentration and plated at 60000 cells/well, with the volume being 90 µL/well. Subsequently, 10 µL of the compounds at different concentrations was added and the plate was incubated in a CO2 incubator for 3 days. After the incubation was completed, according to the operation instructions for testosterone Elisa kit (Beyotime, PT872), 50 µL of the cell culture supernatant was collected from each well and centrifuged at 500 g for 5 min at room temperature and then the resulting supernatant was collected. The samples were added to the corresponding wells at 25 µl/well, and then formulated horseradish peroxidase labeled testosterone was added at 75 µl/well. The mixture was fully mixed for 10 seconds. The reaction wells were sealed with a plate-sealing film (white) and the mixture was incubated at room temperature in the dark for 120 min. The plate was washed 3 times with a volume of 300 µl per well, and then placed onto thick absorbent paper and dried. Chromogenic reagent TMB solution was added at 100 µl/well. The reaction wells were sealed with a plate-sealing film (white) and the mixture was incubated at room temperature in the dark for 15-20 min. Subsequently, a termination solution was added at 50 µl/well, and after the mixture was fully mixed, the absorbance value OD450 was immediately measured. The absorbance readings were processed using Graphpad Prim 8.0 software and S-shaped concentration curves were plotted and the IC50 values were calculated using a four-parameter non-linear regression model. The results were processed according to formula (1), the inhibition rate of the compound at different concentrations was calculated, and the IC50 value of the compound with an inhibition rate of 50% was calculated using Graphpad Prim 8.0 software, wherein RLU compound was the readout of the treated group, and RLU control was the average value of the solvent control group. Inhibition rate% = 100-RLUcompound /RLUcontrol × 100 [formula] Table 1. Inhibitory activity on testosterone level in NCI-H295R cells

Series [2] in a line: Pharmacokinetic test in mice. It counts as in vivo. The conditions noted are these: mouse, male ICR mice, plasma; for Vd: read-out: Vdss. As to the method:
4.1. Experimental animals: Male ICR mice, 20-25 g, 6 mice/compound, purchased from Chengdu Dossy Experimental Animals Co., Ltd.
4.2 Experimental design: on the day of the experiment, the ICR mice were randomly grouped according to their body weights. […] Table 5. Administration information
vehicle for intravenous administration: 5% DMA+5% HS-15+90% NS; vehicle for intragastric administration: 0.5% MC
Before and after administration, 0.06 mL of blood was taken from the orbit under isoflurane anesthesia and placed in an EDTAK2 centrifuge tube. The tube was centrifuged at 5000 rpm at 4°C for 10 min, and plasma was collected. […] Before analysis and detection, all samples were stored at -80°C, and the samples were quantitatively analyzed by LC-MS/MS. Table 6. Pharmacokinetic parameters of test compounds in plasma of mice

For series [3], the system named is pregnenolone level in NCI-H295R cells. Kind of series: cells. It counts as cell-based. The conditions noted are these: Homo sapiens, 72 h; for IC50: read-out: Pregnenolone level in H295R (Elisa) IC50 nM. As to the method: 2. The purpose of the experimental study was intended to detect the pregnenolone level in the NCI-H295R cells by adopting the Enzyme linked immunosorbent assay (ELISA), so as to evaluate the inhibitory effects of the compounds on the pregnenolone level in the NCI-H295R cells.
The H295R cells were purchased from ATCC (CRL-2128), the cell complete medium contained DMEM: F12+ 10% FBS +0.00625 mg/ml insulin+0.00625 mg/mL transferrin+6.25 ng/mL selenium+1.25 mg/mL BSA+0.00535 mg/mL linoleic acid, and the cells were cultured in a 37°C, 5% CO2 incubator. The cells in the exponential growth phase were collected, and cultured in a cytokine-free medium (phenol red 1640-free +1% PS+10% css FBS+1.25 mg/mL BSA +0.00625 mg/mL insulin+0.00625 mg/mL transferrin+6.25 ng/mL selenium+0.00535 mg/mL linoleic acid) for 3 days. The cells in the exponential growth phase were collected on the third day. The cell suspension was adjusted with a cytokine-free medium to a corresponding concentration and plated at 60000 cells/well, with the volume being 90 µL/well. Subsequently, 10 µL of the compounds at different concentrations was added and the plate was incubated in a CO2 incubator for 3 days. After the incubation was completed, the cell culture supernatant was collected and centrifuged at 2°C-8°C at 800×g for 10 min. The resulting supernatant was collected. Determination was carried out according to the operation instructions for pregnenolone Elisa kit (Antibodies-A73791), and the OD450 signal was read.
2.1 Standard curve plotting. The standard concentration was taken as the abscissa and the OD450 value as the ordinate, the coordinate points of various standards were connected with a smooth line and a curve was fitted according to the four parameter logistic (4-PL) method.
2.2 Sample quantification: The corresponding concentration (CONC) of testosterone/pregnenolone in the sample was calculated using the absorbance value of the sample and the standard curve. According to formula (2), the inhibition rate of the compound at various concentrations was calculated, and S-shaped concentration curves were plotted and the IC50 values (i.e., concentration of the compound at which the inhibition rate was 50%) were calculated using a three parameter non-linear regression model in Graphpad Prim 8.0 software. CONC cpd was the concentration of the treated group, and CONC ctrl was the average concentration value of the solvent control group. Inhibition rate% = 100%-CONCepd /CONCctrl × 100% [formula]

Series [4] can be described thus: Pharmacokinetic test in beagle dogs. Particulars: dog, male beagle dogs, plasma. The class given is in vivo. How it is done: Experimental animals: male beagle dogs, about 8-11 kg, 6 beagle dogs/compound, purchased from Beijing Marshall Biotechnology Co., Ltd.
Experimental method: on the day of the experiment, the beagle dogs were randomly grouped according to their body weights. The animals were fasted with water available for 12-14 h one day before the administration, and were fed 4 h after the administration. Administration was performed as per Table 7.
Test compounds: example compounds and control compounds. Table 7. Administration information
Before and after the administration, 1 ml of blood was taken from the jugular veins or limb veins, and placed in an EDTAK2 centrifuge tube. Centrifugation was performed at 5000 rpm at 4°C for 10 min, and plasma was collected. The blood collection time points for both the intravenous administration group and the intragastric administration group were: 0, 5 min, 15 min, 30 min, 1 h, 2 h, 4 h, 6 h, 8 h, 10 h, 12 h, 24 h, 48 h, and 72 h. Before analysis and detection, all samples were stored at -80°C. The samples were analyzed quantitatively by LC-MS/MS. Table 8. Pharmacokinetic parameters of test compounds in plasma of beagle dogs

Series [5] is described as follows: Pharmacokinetic test in rats. It counts as in vivo. Particulars: rat, male SD rats, plasma; for Vd: read-out: Vdss. As to the method: 3.1 Experimental animals: Male SD rats (about 220 g, 6-8 weeks old, 6 rats/compound), purchased from Chengdu Dossy Experimental Animals Co., Ltd.
3.2 Experimental design: On the day of the experiment, the SD rats were randomly grouped by body weight. […] Table 3. Administration information
Before and after the administration, 0.1 ml of blood was taken from the orbit of the animals under isoflurane anesthesia and placed in an EDTAK2 centrifuge tube. The blood was centrifuged at 5000 rpm and 4°C for 10 min to collect plasma. […] Before analysis and detection, all samples were stored at -80°C. Table 4. Pharmacokinetic parameters of test compounds in plasma of rats

Where [6] appears, read: po, intragastric administration (10 mg/kg).
Where [7] appears, read: intravenous administration (2.5 mg/kg).
Setting [8] is: po, intragastric administration (3 mg/kg).
[9] abbreviates: intravenous administration (1 mg/kg).

On to `CS(=O)(=O)N1CC(OC(=O)N2CCC3(CC2)CC(Oc2cc(CN4Cc5ccc(C(F)(F)F)cc5C4)ccn2)C3)C1` [Compound 38], for which, in series [1], the inhibition at 0.1 µM came out at 68.2% and the inhibition at 1 µM was 81%. In series [2] (setting [6]), this compound had an AUC(0-t) of 13500 ng·h/mL and a half-life of 3.65 h. Also, in series [2] (setting [7]), the AUC(0-t) was determined as 4360 ng·h/mL, the clearance came to 9.45 mL/min/kg, the half-life was 4.11 h and the Vd was determined as 2.78 L/kg.

As to `CS(=O)(=O)N1CCC(CCOc2cc(CN3Cc4ccc(C5CC5)cc4C3)ccn2)CC1` [Compound 50], in series [1], the IC50 is 130 nM, the inhibition at 0.1 µM turned out to be 51.7% and the inhibition at 1 µM worked out at 89.4%. Besides, in series [2] (setting [6]), the AUC(0-t) worked out at 7780 ng·h/mL and the half-life was 2.73 h. Also, in series [2] (setting [7]), the AUC(0-t) came out at 2360 ng·h/mL, the clearance came to 17.3 mL/min/kg, the half-life was 3 h and the Vd was 3.37 L/kg.

For `[2H]C([2H])([2H])C(=O)N[C@H]1CC[C@H](c2cc3oc(CN4Cc5ccc(C(F)(F)F)cc5C4)cc(=O)c3o2)CC1` [Compound 58], the IC50 came out at 57 nM in series [1] and 160 nM in series [3]. Moreover, the exposure AUC(0-t) in series [2] (setting [6]) amounted to 9460 ng·h/mL; in series [2] (setting [7]) it was 2960 ng·h/mL; in series [4] (setting [8]), 24800 ng·h/mL; in series [4] (setting [9]) it was 14000 ng·h/mL. Further, the half-life is 2.08 h in series [2] (setting [6]), 2.77 h in series [2] (setting [7]), 6.79 h in series [4] (setting [8]) and 10.2 h in series [4] (setting [9]). Besides, the clearance in series [2] (setting [7]) was 14.2 mL/min/kg; in series [4] (setting [9]) it was 1.24 mL/min/kg. The Vd is 1.34 L/kg in series [2] (setting [7]) and 0.87 L/kg in series [4] (intravenous administration (1 mg/kg), read-out: Vdss).

For the compound `[2H]C([2H])([2H])C(=O)N[C@H]1CC[C@H](CCOc2cc(CN3Cc4ccc(C(F)(F)F)cc4C3)ccn2)CC1` [Compound 62], in series [1], the IC50 is 151 nM. Also, the IC50 in series [3] is 142 nM. In series [5] (setting [6]), the AUC(0-t) was found to be 41500 ng·h/mL and the half-life is 4.13 h. In addition, in series [5] (setting [7]), the AUC(0-t) was determined as 10800 ng·h/mL, the clearance is 3.97 mL/min/kg, the half-life is 3.81 h and the Vd was determined as 1.11 L/kg.

With `[2H]C([2H])([2H])n1cc(C(=O)N[C@H]2CC[C@H](CCOc3cc(CN4Cc5ccc(C(F)(F)F)cc5C4)ccn3)CC2)cn1` [Compound 63], in series [1], the IC50 came to 92 nM, the inhibition at 0.1 µM was 64.4% and the inhibition at 1 µM is 76.4%. In series [3], the IC50 turned out to be 272 nM. In series [2] (setting [6]), the AUC(0-t) came out at 20800 ng·h/mL and the half-life is 6.62 h. In series [2] (setting [7]), the AUC(0-t) worked out at 5530 ng·h/mL, the clearance was 7.37 mL/min/kg, the half-life is 4.7 h and the Vd came out at 2.36 L/kg.

In the case of `O=C(N[C@H]1CC[C@H](CCOc2cc(CN3Cc4ccc(C(F)(F)F)cc4C3)ccn2)CC1)C1CC1` [Compound 65], in series [1], the IC50 turned out to be 168 nM, the inhibition at 0.1 µM is 71% and the inhibition at 1 µM was found to be 75%. In addition, the IC50 in series [3] was found to be 319 nM. In series [5] (setting [6]), this compound had an AUC(0-t) of 7550 ng·h/mL and a half-life of 6.58 h. Further, in series [5] (setting [7]), the AUC(0-t) worked out at 2150 ng·h/mL, the clearance came out at 17.4 mL/min/kg, the half-life is 8.25 h and the Vd came to 8.8 L/kg.

As for `O=C(N[C@H]1CC[C@H](CCOc2cc(CN3Cc4ccc(C(F)(F)F)cc4C3)ccn2)CC1)[C@@H]1CC1(F)F` [Compound 71], the figures for the inhibition at 0.1 µM in series [1] and in series [3] (read-out: Pregnenolone level in H295R (Elisa) inh.% 100 nM) were 74.9% and 43.9%, respectively. Further, the inhibition at 1 µM was 86.9% in series [1] and 57.5% in series [3] (read-out: Pregnenolone level in H295R (Elisa) inh.% 1000 nM).
